The text below walks through data of ChEMBL document CHEMBL4420076, “Amylin and calcitonin receptor agonist” (2017).

Data set [1] in a line: Solubility in 100 mM bistrispropane buffer at pH 7.0 incubated for 18 hrs by UPLC analysis. It counts as physicochemical.
A short description of data set [2]: Solubility in 100 mM glycylglycine buffer at pH 3.0 incubated for 18 hrs by UPLC analysis. It counts as physicochemical.
Data set [3] is described as follows: Solubility in 100 mM bistrispropane buffer at pH 8.0 incubated for 18 hrs by UPLC analysis. It counts as physicochemical.
Data set [4] can be described thus: Solubility in 100 mM glycylglycine buffer at pH 5.0 incubated for 18 hrs by UPLC analysis. It counts as physicochemical.
The nature of data set [5]: Solubility in 100 mM bistrispropane buffer at pH 6.0 incubated for 18 hrs by UPLC analysis. It counts as physicochemical.
For data set [6], the system named is Rattus norvegicus. The data set can be described thus: Reduction in food intake in Sprague-Dawley rat at 3 nmol/kg measured 24 to 48 hrs post dose relative to control. It counts as functional. Also on record: scale not given: the % may be the effect or the level left.
Data set [7] has as its target T1, Amylin receptor AMY3; CALCR/RAMP3 (Homo sapiens, UniProt O60896+P30988).
T1 sequence (P30988 whole entry): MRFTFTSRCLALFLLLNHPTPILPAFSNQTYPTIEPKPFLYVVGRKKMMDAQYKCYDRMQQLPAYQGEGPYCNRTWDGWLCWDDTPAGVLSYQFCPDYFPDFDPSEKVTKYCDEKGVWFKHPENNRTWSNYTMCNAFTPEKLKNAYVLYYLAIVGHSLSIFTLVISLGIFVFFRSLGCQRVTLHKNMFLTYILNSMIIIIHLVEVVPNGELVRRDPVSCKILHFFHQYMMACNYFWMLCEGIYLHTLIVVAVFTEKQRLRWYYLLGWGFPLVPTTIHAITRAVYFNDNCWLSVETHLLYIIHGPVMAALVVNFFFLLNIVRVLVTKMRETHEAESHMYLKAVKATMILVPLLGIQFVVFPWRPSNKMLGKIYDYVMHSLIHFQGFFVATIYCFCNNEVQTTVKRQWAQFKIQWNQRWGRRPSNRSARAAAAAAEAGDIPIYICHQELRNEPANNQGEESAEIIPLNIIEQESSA
T1 sequence (O60896 whole entry): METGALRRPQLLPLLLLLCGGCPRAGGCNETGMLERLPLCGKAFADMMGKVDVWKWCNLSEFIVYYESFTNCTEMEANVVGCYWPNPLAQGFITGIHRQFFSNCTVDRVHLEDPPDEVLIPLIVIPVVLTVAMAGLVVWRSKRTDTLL
The data set can be described thus: Agonist activity at human amylin receptor expressed in BHK570 cells co-expressing RAMP3 assessed as increase in intracellular cAMP concentration incubated for 3 hrs in absence of albumin by CRE luciferase reporter gene assay. It counts as functional, cell-based.

The test system of data set [8] is Rattus norvegicus. The data set can be described thus: Reduction in food intake in Sprague-Dawley rat at 3 nmol/kg measured 0 to 24 hrs post dose relative to control. It counts as functional. Also on record: scale not given: the % may be the effect or the level left.
Data set [9] in a line: Solubility in 100 mM bistrispropane buffer at pH 6.5 incubated for 18 hrs by UPLC analysis. It counts as physicochemical.
Data set [10] concerns the target T2, Calcitonin receptor (Homo sapiens, UniProt P30988).
T2 sequence (P30988 whole entry): T1 sequence (P30988 whole entry)
Nature of the data set: Agonist activity at human calcitonin receptor expressed in BHK570 cells assessed as increase in intracellular cAMP concentration incubated for 3 hrs in absence of albumin by CRE luciferase reporter gene assay. It counts as functional, cell-based.

Data set [11] is described as follows: Solubility in 100 mM glycylglycine buffer at pH 4.0 incubated for 18 hrs by UPLC analysis. It counts as physicochemical.
The target in data set [12] is T1, Amylin receptor AMY3; CALCR/RAMP3. The data set can be described thus: Displacement of [125I]-labeled rat amylin from human amylin receptor expressed in BHK tkts13 whole cells co-expressing RAMP3 incubated for 60 mins by scintillation proximity assay. It counts as cell-based. Background: Loss of bound radioactivity is the signal in a displacement assay; it reports binding, not function.

The nature of data set [13]: Solubility in 100 mM bistrispropane buffer at pH 7.5 incubated for 18 hrs by UPLC analysis. It counts as physicochemical.
Data set [14] addresses T2, Calcitonin receptor. Nature of the data set: Displacement of [125I]-labeled human calcitonin from human calcitonin receptor expressed in BHK tkts13 whole cells incubated for 60 mins by scintillation proximity assay. It counts as cell-based.
Data set [15] concerns the target T2, Calcitonin receptor. The data set can be described thus: Agonist activity at human calcitonin receptor expressed in BHK570 cells assessed as increase in intracellular cAMP concentration incubated for 3 hrs in presence of 10% FBS by CRE luciferase reporter gene assay. It counts as functional, cell-based. On the technique in general: In a reporter assay the amount or activity of a reporter protein is the signal.

Data set [16] deals with T1, Amylin receptor AMY3; CALCR/RAMP3. The data set can be described thus: Agonist activity at human amylin receptor expressed in BHK570 cells co-expressing RAMP3 assessed as increase in intracellular cAMP concentration incubated for 3 hrs in presence of 10% FBS by CRE luciferase reporter gene assay. It counts as functional, cell-based.

pEC50, pIC50: −log10 of the molar value. Numbered stars: 1 amine (or outer) side, 2 acyl side, 3 side chain; on linkers, the order of the positions; unused ones are H or OH. Peptide text beside a SMILES is read from it. * marks the point of attachment. C20 diacid = O=C(O)CCCCCCCCCCCCCCCCCCC(=O)*; C18 diacid = O=C(O)CCCCCCCCCCCCCCCCC(=O)*; C16 diacid = O=C(O)CCCCCCCCCCCCCCC(=O)*; γGlu = O=C(O)[C@H](CCC(=O)[*:2])N[*:1]

For orientation: solubility means the concentration that dissolves in the medium under given conditions. Usually pEC50 stands for the EC50 on a negative log10 scale, so that one unit is a factor of ten. A word on the pIC50: it is −log10 of the IC50, conventionally taken in molar units. Turning to `CC(C)C[C@H](NC(=O)[C@H](C)NC(=O)[C@H](C)NC(=O)[C@@H](NC(=O)[C@H](CO)NC(=O)[C@H](CC(C)C)NC(=O)[C@H](CCC(=O)O)NC(=O)[C@H](CO)NC(=O)[C@H](C)NC(=O)[C@H](CCC(=O)O)NC(=O)CCCCCCCCCCCCCCC(=O)O)[C@@H](C)O)C(=O)NCC(=O)N[C@@H](CCCNC(=N)N)C(=O)N[C@@H](CC(C)C)C(=O)N[C@@H](CO)C(=O)N[C@@H](C)C(=O)N[C@@H](CCC(=O)O)C(=O)N[C@@H](CC(C)C)C(=O)N[C@@H](Cc1cnc[nH]1)C(=O)N[C@@H](CCC(=O)O)C(=O)N[C@@H](CC(C)C)C(=O)N[C@@H](C)C(=O)N[C@H](C(=O)N[C@@H](CC(C)C)C(=O)N1CCC[C@H]1C(=O)N[C@@H](CCCNC(=N)N)C(=O)N[C@H](C(=O)N[C@@H](CCC(=O)O)C(=O)N[C@H](C(=O)NCC(=O)N1CCC[C@H]1C(=O)N[C@@H](CCC(=O)O)C(=O)N[C@@H](CO)C(=O)N1CCC[C@H]1C(N)=O)[C@@H](C)O)[C@@H](C)O)[C@@H](C)O` ({C16 diacid}-EASELSTAALGRLSAELHELATLPRTETGPESP-NH2), the solubility at 18 h in data set [1], in [2], in data set [3], in [4], in data set [5] and in [9] was not below 200 µM throughout. Also, the solubility at 18 h in data set [11] and in data set [13] was not below 200 µM in each case. The Activity in the data set with Rattus norvegicus [6] is recorded as 9%; with Rattus norvegicus [8] it was 63%. For the same compound, the pEC50 in [7] is 11.10; on Calcitonin receptor [10], 11.40. For the same compound, the pIC50 was 9.30 in data set [12] and 9.38 at Calcitonin receptor [14].
As for `CC(C)C[C@H](NC(=O)[C@H](CCC(=O)O)NC(=O)[C@H](Cc1cnc[nH]1)NC(=O)[C@H](CC(C)C)NC(=O)[C@H](CCC(=O)O)NC(=O)[C@H](C)NC(=O)[C@H](CO)NC(=O)[C@H](CC(C)C)NC(=O)[C@H](CCCNC(=N)N)NC(=O)CNC(=O)[C@H](CC(C)C)NC(=O)[C@@H](NC(=O)[C@H](C)NC(=O)[C@@H](NC(=O)[C@H](CO)NC(=O)[C@H](CC(C)C)NC(=O)[C@H](CCC(=O)O)NC(=O)[C@@H]1CCCN1C(=O)[C@H](C)NC(=O)[C@H](CCC(=O)O)NC(=O)CCCCCCCCCCCCCCCCC(=O)O)[C@@H](C)O)C(C)C)C(=O)N[C@@H](C)C(=O)N[C@H](C(=O)N[C@@H](CC(C)C)C(=O)N1CCC[C@H]1C(=O)N[C@@H](CCCNC(=N)N)C(=O)N[C@H](C(=O)N[C@@H](CCC(=O)O)C(=O)N[C@H](C(=O)NCC(=O)N1CCC[C@H]1C(=O)N[C@@H](CCC(=O)O)C(=O)N[C@@H](CO)C(=O)N1CCC[C@H]1C(N)=O)[C@@H](C)O)[C@@H](C)O)[C@@H](C)O` ({C18 diacid}-EAPELSTAVLGRLSAELHELATLPRTETGPESP-NH2), the solubility at 18 h in data set [1], in data set [2], in data set [3], in data set [4], in data set [5] and in [9] was not below 200 µM each time. Further, the solubility at 18 h in [11] and in data set [13] was not below 200 µM each time. The Activity with Rattus norvegicus [6] came to 0%; in the data set on Rattus norvegicus [8] it was 52%. In addition, the pEC50 was 11.00 in [7] and 11.15 on Calcitonin receptor [10]. The pIC50 in [12] is 9.45; on Calcitonin receptor [14], 9.51.
For `CC(C)C[C@H](NC(=O)[C@H](CCC(=O)O)NC(=O)[C@H](C)NC(=O)[C@H](CO)NC(=O)[C@H](CC(C)C)NC(=O)[C@H](CCCNC(=N)N)NC(=O)CNC(=O)[C@H](CC(C)C)NC(=O)[C@@H](NC(=O)[C@H](C)NC(=O)[C@@H](NC(=O)[C@H](CO)NC(=O)[C@H](CC(C)C)NC(=O)[C@H](CCC(=O)O)NC(=O)[C@H](CO)NC(=O)[C@H](C)NC(=O)[C@H](CCC(=O)O)NC(=O)CCCCCCCCCCCCCCCCC(=O)O)[C@@H](C)O)C(C)C)C(=O)N[C@@H](C)C(=O)N[C@@H](CCC(=O)O)C(=O)N[C@@H](CC(C)C)C(=O)N[C@@H](C)C(=O)N[C@H](C(=O)N[C@@H](CC(C)C)C(=O)N1CCC[C@H]1C(=O)N[C@@H](CCCNC(=N)N)C(=O)N[C@H](C(=O)N[C@@H](CCC(=O)O)C(=O)N[C@H](C(=O)NCC(=O)N1CCC[C@H]1C(=O)N[C@@H](CCC(=O)O)C(=O)N[C@@H](CO)C(=O)N1CCC[C@H]1C(N)=O)[C@@H](C)O)[C@@H](C)O)[C@@H](C)O` ({C18 diacid}-EASELSTAVLGRLSAELAELATLPRTETGPESP-NH2), the solubility at 18 h in data set [1], in [2], in [3], in data set [4], in data set [5] and in [9] was not below 200 µM in each case. In data set [13], this compound yielded a solubility at 18 h not below 200 µM. In addition, the Activity amounted to 39% with Rattus norvegicus [6] and 73% in the data set with Rattus norvegicus [8]. The negative logarithm of the EC50 (pEC50) in data set [7] is 11.10; on Calcitonin receptor [10], 11.15. Besides, the negative-log IC50 (pIC50) at Calcitonin receptor [14] is 9.12.
Take `CC(C)C[C@H](NC(=O)[C@H](CCCNC(=N)N)NC(=O)CNC(=O)[C@H](CC(C)C)NC(=O)[C@@H](NC(=O)[C@H](C)NC(=O)[C@@H](NC(=O)[C@H](CO)NC(=O)[C@H](CC(C)C)NC(=O)[C@H](CCC(=O)O)NC(=O)[C@H](CO)NC(=O)[C@H](C)NC(=O)CC[C@H](NC(=O)CCCCCCCCCCCCCCCCCCC(=O)O)C(=O)O)[C@@H](C)O)[C@@H](C)O)C(=O)N[C@@H](CO)C(=O)N[C@@H](C)C(=O)N[C@@H](CCC(=O)O)C(=O)N[C@@H](CC(C)C)C(=O)N[C@@H](Cc1cnc[nH]1)C(=O)N[C@@H](CCC(=O)O)C(=O)N[C@@H](CC(C)C)C(=O)N[C@@H](CO)C(=O)N[C@H](C(=O)N[C@@H](Cc1ccc(O)cc1)C(=O)N1CCC[C@H]1C(=O)N[C@@H](CCCNC(=N)N)C(=O)N[C@H](C(=O)N[C@@H](CCC(=O)O)C(=O)N[C@H](C(=O)NCC(=O)N[C@@H](CO)C(=O)NCC(=O)N[C@@H](CO)C(=O)N1CCC[C@H]1C(N)=O)[C@@H](C)O)[C@@H](C)O)[C@@H](C)O` ({C20 diacid-γGlu}-ASELSTATLGRLSAELHELSTYPRTETGSGSP-NH2): the solubility at 18 h in [1], in [2], in data set [3], in [5], in data set [9] and in data set [11] was not below 200 µM each time. For the same compound, the solubility at 18 h in [13] is not below 200 µM. Moreover, the negative-log EC50 (pEC50) is 10.66 in data set [7], 9.98 on Calcitonin receptor [15] and 9.82 in data set [16]. Further, the pIC50 in data set [12] is 8.58; at Calcitonin receptor [14], 8.53.
